Our source for the half-life values is PubChem BioAssay AID1508591.

Where only a bound is given, the exact number is not on record here.

For this data set the following is noted: rat; liver microsomes; pH 7.4; 15.0 min; 1.0 µM. Background: Liver microsomes are vesicles of endoplasmic reticulum, rich in cytochrome P450 enzymes.
As for `O=C(Nc1ccc2oc(-c3cccnc3)nc2c1)c1ccc(-c2cccc(Cl)c2)o1`, the half-life (as a rule, how long it takes for the measured level to halve) was above 30 min. `COc1ccccc1N1CCN(C2CCCCC2NS(=O)(=O)c2ccccc2)CC1` (stereo not drawn): the half-life came to 1.69 min. As for `CC(=O)c1c(C)[nH]c(C(=O)Nc2cccc([S+](=O)([O-])Nc3ccc(C#N)cc3)c2)c1C`, the figure is above 30 min. With `O=C(Nc1ncc(Cc2ccc(C(F)(F)F)cc2)s1)c1ncc(-c2ccccc2)[nH]1` the figure was above 30 min; with `CCC(=O)NC(c1cccs1)c1cc([N+](=O)[O-])c2cccnc2c1O` (stereo not drawn), above 30 min; with `CCn1c(-c2nonc2N)nc2cnc(Oc3cccc(NC(=O)c4ccc(OCCN5CCOCC5)cc4)c3)cc21`, 6.56 min.

On to `CC(=O)NCCNC[C@@H]1C=C(C)[C@H](Cc2nnc(-c3ccccc3)o2)C[C@H]1C(C)C`, for which the half-life amounted to 5.06 min. `Cc1ccc(-c2ccc(CNc3nc(-c4ccccc4C(C)C)nc4ccccc34)cc2)cn1` gave a half-life of 8.23 min. As for `COc1ccc(-n2nc(C3CCN(C(=O)c4ccccc4)CC3)[nH]c2=O)cc1`, the figure is above 30 min. Molecule `Cc1nc([C@](C)(O)CO)sc1-c1cnc(N)c(O[C@H](C)c2cc(F)ccc2-n2nccn2)c1` registered a half-life of 22.6 min. `Fc1ccc(Oc2nc(-c3ccncc3)nc3ccccc23)cc1F` returned a half-life of 15 min. With `COc1ccc(NC(=O)c2[nH]c(C)c(C(C)=O)c2C)cc1S(=O)(=O)N1CCCCCC1` the figure was 3 min; with `COc1cc(Nc2nc(-c3ccncc3)nc3ccccc23)ccc1Cl`, 12 min; with `CN1CCN(CCCN2c3ccccc3Sc3ccc(S(=O)(=O)N(C)C)cc32)CC1`, 1.95 min. As for `CC(C)COc1ccc(-c2ccc(=O)n(CC(=O)NCCc3ccccc3)n2)cc1`, the figure is 1.8 min; as for `CC(=O)c1ccc(-c2csc(N3CCC(C(N)=O)CC3)n2)cc1`, 4.4 min. `Cc1ccc(S(=O)(=O)Nc2cnccc2C(=O)Nc2nc(-c3nc4ccccc4s3)cs2)cc1` registered a half-life of 24 min. With `CCOc1ccc(CCNC(=O)c2cccc(C(=O)c3ccccc3)c2)cc1OCC` the figure was 1.66 min; with `Cc1ccc(-c2cc(C(=O)Nc3ccc(C#N)cc3)c3ccccc3n2)cc1C`, above 30 min; with `C[C@@H]1CN(CC(=O)N2CC(C)(C)c3ncc(Cc4ccc(F)cc4)cc32)[C@@H](CN2CCOC[C@H]2C)CN1`, 7.57 min. As for `O=C1Nc2ccccc2/C1=C\c1cc(F)c(O)c(F)c1`, the figure is 23 min. With `Cc1ccc(S(=O)(=O)N[C@@H](Cc2ccccc2)C(=O)CCl)cc1` the figure was 2.36 min; with `COc1ccc(-n2nc(C3CCCN(C(=O)c4cccc(OC)c4)C3)[nH]c2=O)cc1` (stereo not drawn), 23.4 min; with `O=C(c1cnc(N2CCCCC2)c2ccccc12)N1CCN(c2ccc(Cl)cc2)CC1`, 2.8 min. Molecule `Cc1ccc(-c2nnc(Nc3ccc(Br)cc3)c3ccccc23)cc1S(=O)(=O)N1CCN(C)CC1` displayed a half-life of 1.31 min. As for `COc1cc(NC(=O)c2nc3ccccc3n(C)c2=O)cc(OC)c1OC`, the figure is above 30 min; as for `CCNC(=O)N1CCCN(c2ccc(C(=O)NCCc3ccc(Cl)cc3Cl)cc2NC(=O)c2cccc(Cl)c2)CC1`, 0.9 min; as for `Cc1ccccc1C(=O)N1CCc2cc(-c3nc(NC(=O)Cc4ccc5ccccc5c4)sc3C)ccc21`, above 30 min.

Molecule `COc1ccnc(NC(=S)N2CCN(c3cc(C(F)(F)F)cc(C(F)(F)F)c3)CC2)c1` came in with a half-life above 30 min.

`CN(C)C(=O)NC1CCC(CCN2CCN(c3cccc(Cl)c3Cl)CC2)CC1` (stereo not drawn) came in with a half-life above 30 min. As for `COC(=O)C1=COC(C)C2CN3CCc4c([nH]c5cc(OC)c(OC)cc45)C3CC12` (stereo not drawn), the figure is 26.3 min; as for `CCCc1oc2ccc(NS(=O)(=O)c3ccc(OC)cc3)cc2c1C(=O)OCC`, 1.37 min; as for `COc1cc(-c2nc(Nc3ccc(F)c(F)c3)c3ccccc3n2)c(F)cn1`, above 30 min. `CC(=O)Nc1cc(-c2nc(Nc3ccc(F)c(F)c3)c3ccccc3n2)ccn1` showed a half-life of 12 min.

`CCCn1cnc2cc(NCc3ccc(OC)cc3OC)ccc21` registered a half-life of 7.1 min. As for `N#Cc1ccccc1Nc1ncc(-c2cccc3ccccc23)o1`, the figure is 5.8 min; as for `O=S(=O)(Nc1nccs1)c1ccc(Nc2nc(-c3ccc(F)cc3)cs2)cc1`, above 30 min; as for `CC(C)NC(=O)C1CCN(C(=O)c2cc3sccc3n2Cc2ccc(Cl)cc2)CC1`, 1.05 min. As for `Cc1ccnc(NC(=S)N2CCN(c3cccc(Cl)c3Cl)CC2)c1`, the figure is 2.4 min; as for `Fc1ccccc1CNCc1ccc(-c2ccnc3[nH]ccc23)cc1`, 1.47 min. Take `Cc1onc(-c2ccc(F)cc2)c1COc1ccc(C(=O)N2CCS(=O)(=O)CC2)cn1`: the half-life amounted to 9.64 min. The molecule `COc1cccc(CNc2ccc(S(=O)(=O)Nc3cc(C)on3)cc2)c1O` showed a half-life above 30 min. `S=C(NCCCc1cnc[nH]1)NCCCN(Cc1ccc(Cl)c(Cl)c1)c1ccc(Br)cn1` came in with a half-life above 30 min.

Molecule `COc1cccc(CN(C)c2ccc([S+](=O)([O-])Nc3nccs3)cc2)c1O` gave a half-life above 30 min. With `COc1ccc(CNC(=O)Cn2nc3c(cc2=O)CCCC3)cc1` the figure was above 30 min; with `CSc1ncc(Cl)c(C(=O)Nc2c(C)cccc2C)n1`, 5.48 min; with `COC(=O)c1ccccc1C(=O)Nc1nc(-c2ccccc2)cs1`, 3 min.

`CCN(CC)[S+](=O)([O-])c1cc(NC(=O)c2[nH]c(C)c(C(C)=O)c2C)ccc1OC`: the half-life came out at 4.7 min. For `COc1ccc(C(=O)NC2CCN(c3cnn(CC4CC4)c(=O)c3)CC2)cc1`, the half-life was above 30 min. As for `CCOC(=O)c1[nH]c(C)c(CCC(=O)N2CCN(c3cc(Cl)ccc3C)CC2)c1C`, the figure is 1.8 min; as for `COCCCNC(=O)c1cc2cc(S(=O)(=O)N(C)C)ccc2n1C`, 25 min; as for `COc1ccc(NS(=O)(=O)c2ccc(C)cc2)c(C(=O)Nc2nc(-c3ccccc3)cs2)c1`, 4.5 min. As for `Cc1cnc(-c2ccccc2C(C)C)nc1NCC1CN(c2cccnc2)C1`, the figure is 2.6 min. With `COc1ccc(NC(=O)CCCc2nnc3n(CCC(C)C)c(=O)c4sccc4n23)cc1Cl` the figure was 2.96 min; with `CCOC(=O)c1csc(NC(=O)c2ccncc2NS(=O)(=O)c2ccc(C)cc2)n1`, 1.9 min.

In the case of `CCN(CC)CCCCNc1ncc2cc(-c3c(Cl)cccc3Cl)c(NC(=O)NC(C)(C)C)nc2n1`, the half-life is above 30 min. In turn, `COc1ccccc1NS(=O)(=O)c1cccc(NC(=O)c2[nH]c(C)c(C(C)=O)c2C)c1` displayed a half-life of 4.7 min. As for `CN(C)CCNC(=O)c1nc2nc(-c3ccccc3)c(-c3cccc(F)c3)cc2n1C`, the figure is above 30 min.

`CCN(CC)CCNC(=O)C1CCN(c2nn3cc(-c4ccc(F)cc4)nc3s2)CC1` showed a half-life above 30 min. With `Cc1c(C)n(Cc2ccccc2)c2ccc(C(=O)OCCN(C)C)cc12` the figure was 1.78 min; with `COc1cc2nccc(Oc3ccc(NC(=O)Nc4cc(C)on4)c(Cl)c3)c2cc1OC`, above 30 min; with `CO[C@@H]1/C=C\O[C@@]2(C)Oc3c(C)c(O)c4c(c3C2=O)C(=N[C@H]2CC[C@H](O)O[C@@H]2C)C=C(NC(=O)/C(C)=C\C(=O)[C@@H]2C[C@@H]2[C@@H](O)[C@H](C)[C@@H](O)[C@H](C)[C@H](OC(C)=O)[C@@H]1C)C4=O`, 9.93 min.

In turn, `CC(=O)N[C@H]1CN(C2CCN(c3ccc(F)cc3C)CC2)C[C@@H]1C1CC1` had a half-life of 2.3 min.

For `CS(=O)(=O)CCNCc1ccc(-c2ccc3ncnc(Nc4ccc(OCc5cccc(F)c5)c(Cl)c4)c3c2)o1`, the half-life came to 7.65 min. With `COc1ccc(-n2c(C)cc(-c3nnc4n3CCCCC4)c2C)cc1` the figure was 2.4 min. With `O=C(c1ccc2c(c1)ncn2-c1ccccc1)N1CCCCC1` the figure was 16 min; with `CC(C=CC(=O)NO)=C[C@@H](C)C(=O)c1ccc(N(C)C)cc1`, 4.06 min. With `O=C(CCCN1CCC2(CC1)C(=O)N(Cc1cccc(F)c1)CN2c1ccccc1)c1ccc(F)cc1` the figure was 1.65 min; with `Cc1ccc(Cl)cc1NS(=O)(=O)c1cc2c(cc1F)NC(=O)CC2`, 4.97 min; with `CC(=O)NCc1ccc(-c2csc(Nc3cc(C)cc(C)c3)n2)o1`, above 30 min. `CC(=O)c1ccc(N2CCN(c3ccc(NC(=O)c4ccc(F)cc4)cc3C(=O)O)CC2)cc1` displayed a half-life above 30 min. With `Fc1ccc(Nc2nc(-c3ccccc3)cc(-c3ccncc3)n2)cc1F` the figure was above 30 min; with `c1cn2cc(-c3ccc4cn[nH]c4c3)nc(Nc3ccc(N4CCOCC4)cc3)c2n1`, 24.9 min.

In the case of `CCOC(=O)NNc1ccc(N(CC)CC(C)O)nn1` (stereo not drawn), the half-life is above 30 min. With `Cc1ccc(C(=O)Nc2nc3nc(C)cc(=O)n3[nH]2)cc1` the figure was above 30 min; with `COc1ccccc1-n1cnc2cc(C(=O)N3CCCCC3)ccc21`, 3.2 min; with `Cc1csc2nc(-c3cccc(NC(=O)c4ccccc4Cl)c3)cn12`, 0.9 min. `O=C(Nc1ccccc1-c1cn2c(CN3CCNCC3)csc2n1)c1cnc2ccccc2n1` came in with a half-life above 30 min. With `O=S(=O)(Nc1ccccc1)c1ccc(NCc2cccc(Cl)c2O)cc1` the figure was 2.2 min. With `CC(C)c1ccccc1-c1ncc(F)c(NC(C)(C)c2ccc(-n3ccnn3)cc2)n1` the figure was 1.6 min; with `OCc1cccc(-c2cc(-c3cccnc3)c3cncn3c2)c1`, 22 min; with `O=C(Nc1cccc(Cc2ccccc2)n1)c1ccc(-c2cccc([N+](=O)[O-])c2)o1`, 1.7 min. For `COc1ccc2[nH]c3c(C)c4ccncc4c(C)c3c2c1`, the half-life is above 30 min. As for `COc1ccc(-n2nc(C3CCCN(C(=O)Cc4ccc(F)cc4)C3)[nH]c2=O)cc1` (stereo not drawn), the figure is 8.48 min. With `O=C(Cc1c[nH]c2ncc(-c3ccc(Cl)cc3)cc12)NCc1cccnc1` the figure was 1.66 min; with `NC(=O)C1CCN(c2nccc(-c3ccc4c(c3)OCCCO4)n2)CC1`, 4.28 min; with `COC(=O)c1ccc(Oc2nc3c(c(=O)n(C)c(=O)n3C)n2CCC(C)C)cc1`, 2.7 min. As to `O=C(NC1CC1)c1ccc(CSCc2ccccc2Cl)o1`, the half-life is 1.74 min.
